In patent US20220378801A1, “NOVEL COMPOUNDS” (AC Immune SA, priority 2019, published 2022):

Key:
Format in all cases: cell-based
[1] = target: T1, NLRP3 inflammasome (Homo sapiens, UniProt Q96P20); assay: NLRP3 inflammasome activation assay, IL-1 beta release, HMDM cells, MSU stimulation; settings: LPS-primed primary human monocyte-derived macrophages; MSU 150 μg/ml 3 h; IL-1β by AlphaLISA
Method: (§1) The following assays can be used to determine the inhibitory activity of test compounds on the NLRP3 inflammasome using common stimuli nigericin (Invivogen) or monosodium urate crystals (MSU)(Invivogen).
(§2) Human monocyte-like cells are cultured in RPM11640 Glutamax medium supplemented with 10% heat inactivated FCS and 50 U/ml penicillin-streptomycin (Life Technologies). HMDM (Human Monocyte Derived Macrophage) are isolated from human blood with leucosep tubes and classical monocyte isolation kit from Miltenyi based on negative selection.
(§3) Primary human monocyte-derived macrophages (HMDM) are seeded at 30000 per well in a 96 well plate and differentiated into macrophages with 10 ng/ml Human M-CSF (Macrophage Colony Stimulating Factor). At DIV 8 (Day in vitro) medium containing 10 ng/ml LPS is added. After 3 h of LPS priming, concentrations of test compound in the range from […] are added 30 min prior to NLRP3 inflammasome stimulation with Nigericin 2.5 μM or MSU 150 μg/ml for 3 h.
(§4) For IL-1β quantification, supernatants are analyzed using AlphaLISA kits according to the manufacturer's instructions (Perkin Elmer AlphaLISA AL220F).
(§5) IC50 (concentration corresponding to 50% inhibition) were determined using GraphPad Prism 8.

[2] = target: T1, NLRP3 inflammasome; assay: NLRP3 inflammasome activation assay, IL-1 beta release, HMDM cells, Nigericin stimulation; settings: LPS-primed primary human monocyte-derived macrophages; Nigericin 2.5 μM 3 h; IL-1β by AlphaLISA
Method: as §1, §2, §3, §4, §5

[3] = target: T1, NLRP3 inflammasome; assay: NLRP3 inflammasome activation assay, IL-1 beta release, human monocyte-like cells, MSU stimulation; set-up: endogenous in cells; settings: PMA-differentiated, LPS-primed human monocyte-like cells; MSU 150 μg/ml 3 h; IL-1β by AlphaLISA
Method: as §1, §2
(§6) NLRP3 inflammasome activation assays Human monocyte-like cells are seeded at 75000 per well in a 96 well plate and differentiated overnight into macrophages with 10 ng/ml PMA (Phorbol Myristate Acetate). The following day, medium containing 10 ng/ml LPS (lipopolysaccharide) is added. After 3 h of LPS priming, concentrations of test compound in the range from 100 μM to 6 nM are added 30 min prior to NLRP3 inflammasome stimulation with Nigericin 3.75 μM or MSU 150 μg/ml for 3 h.
as §4, §5

[4] = target: T1, NLRP3 inflammasome; assay: NLRP3 inflammasome activation assay, IL-1 beta release, human monocyte-like cells, Nigericin stimulation; set-up: endogenous in cells; settings: PMA-differentiated, LPS-primed human monocyte-like cells; Nigericin 3.75 μM 3 h; IL-1β by AlphaLISA
Method: as §1, §2, §6, §4, §5

T1 sequence (Q96P20 whole entry): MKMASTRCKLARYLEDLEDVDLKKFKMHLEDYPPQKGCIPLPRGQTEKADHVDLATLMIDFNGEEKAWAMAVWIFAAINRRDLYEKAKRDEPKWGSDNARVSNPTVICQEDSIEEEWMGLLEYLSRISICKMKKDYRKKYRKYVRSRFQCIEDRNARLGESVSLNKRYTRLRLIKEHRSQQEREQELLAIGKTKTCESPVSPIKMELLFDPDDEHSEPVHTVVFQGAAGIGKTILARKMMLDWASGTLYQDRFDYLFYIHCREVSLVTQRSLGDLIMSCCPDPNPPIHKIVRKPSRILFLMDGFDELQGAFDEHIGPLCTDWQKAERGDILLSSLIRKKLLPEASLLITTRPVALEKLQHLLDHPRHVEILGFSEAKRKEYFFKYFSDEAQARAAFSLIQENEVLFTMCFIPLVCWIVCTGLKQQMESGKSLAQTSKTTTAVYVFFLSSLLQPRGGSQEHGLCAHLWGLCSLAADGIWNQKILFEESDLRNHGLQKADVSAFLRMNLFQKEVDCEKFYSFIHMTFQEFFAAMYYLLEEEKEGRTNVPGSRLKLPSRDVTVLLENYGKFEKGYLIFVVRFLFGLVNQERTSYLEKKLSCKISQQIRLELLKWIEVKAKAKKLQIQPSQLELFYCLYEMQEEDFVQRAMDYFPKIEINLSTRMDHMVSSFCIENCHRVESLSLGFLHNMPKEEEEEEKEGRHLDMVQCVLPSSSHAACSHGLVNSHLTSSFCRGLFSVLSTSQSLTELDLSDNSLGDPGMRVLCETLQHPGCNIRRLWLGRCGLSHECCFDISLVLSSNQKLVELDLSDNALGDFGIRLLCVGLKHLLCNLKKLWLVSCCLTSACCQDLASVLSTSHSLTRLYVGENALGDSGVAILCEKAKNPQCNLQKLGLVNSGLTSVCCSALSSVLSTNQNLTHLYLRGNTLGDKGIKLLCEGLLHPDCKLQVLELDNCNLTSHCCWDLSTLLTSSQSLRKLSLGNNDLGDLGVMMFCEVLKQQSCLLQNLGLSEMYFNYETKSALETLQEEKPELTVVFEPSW

Row | SMILES | IC50 [1] | IC50 [2] | IC50 [3] | IC50 [4]
1 | CC(C)(O)c1ccc2c(c1)S(=O)(=NC(=O)Nc1c3c(cc4c1CCC4)CCC3)NC2=O (single isomer, unassigned) [Example 41] | < 1 µM | < 1 µM | < 1 µM | < 1 µM
2 | O=C(Nc1c2c(cc3c1CCC3)CCC2)NS1(=O)=NC(=O)c2c(Cl)cccc21 (single isomer, unassigned) [Example 42] | < 1 µM | 1 to 10 µM | < 1 µM | 1 to 10 µM
3 | COc1ccc2c(c1)S(=O)(NC(=O)Nc1c3c(cc4c1CCC4)CCC3)=NC2=O (single isomer, unassigned) [Example 48] | < 1 µM | < 1 µM | < 1 µM | < 1 µM
4 | O=C(Nc1c2c(c(F)c3c1CCC3)CCC2)NS1(=O)=NC(=O)c2sccc21 (single isomer, unassigned) [Example 55] | < 1 µM | < 1 µM | < 1 µM | < 1 µM
5 | O=C(N=S1(=O)NC(=O)c2ccc(Br)cc21)Nc1c2c(cc3c1CCC3)CCC2 (single isomer, unassigned) [Example 60] | < 1 µM | 1 to 10 µM | < 1 µM | < 1 µM
6 | O=C(Nc1c2c(cc3c1CCC3)CCC2)NS1(=O)=NC(=O)c2cc(F)ccc21 (single isomer, unassigned) [Example 62] | < 1 µM | 1 to 10 µM | < 1 µM | < 1 µM
7 | O=C(Nc1c2c(cc3c1CCC3)CCC2)NS1(=O)=NC(=O)c2ccccc2C1 (centres unmarked) [Example 3] | < 1 µM | 1 to 10 µM | < 1 µM | 1 to 10 µM
8 | O=C(Nc1c2c(cc3c1CCC3)CCC2)NS1(=O)=NC(=O)c2sccc21 (centres unmarked) [Example 4] | < 1 µM | 1 to 10 µM | < 1 µM | < 1 µM
9 | O=C(Nc1c2c(c(F)c3c1CCC3)CCC2)NS1(=O)=NC(=O)c2ccccc21 (centres unmarked) [Example 5] | < 1 µM | 1 to 10 µM | < 1 µM | 1 to 10 µM
10 | O=C(Nc1c2c(cc3c1CCC3)CCC2)NS1(=O)=NC(=O)c2c(Cl)cccc21 (centres unmarked) [Example 11] | 1 to 10 µM | 1 to 10 µM | < 1 µM | 1 to 10 µM
11 | Cc1cccc2c1C(=O)N=S2(=O)NC(=O)Nc1c2c(cc3c1CCC3)CCC2 (centres unmarked) [Example 14] | 1 to 10 µM | 1 to 10 µM | < 1 µM | 1 to 10 µM
12 | O=C(Nc1c2c(c(F)c3c1CCC3)CCC2)NS1(=O)=NC(=O)c2sccc21 (centres unmarked) [Example 19] | < 1 µM | < 1 µM | < 1 µM | < 1 µM
13 | CC(C)(O)c1ccc2c(c1)S(=O)(=NC(=O)Nc1c3c(cc4c1CCC4)CCC3)NC2=O (centres unmarked) [Example 30, 1-(1,2,3,5,6,7-hexahydro-s-indacen-4-yl)-3-(6-(2-hydroxypropan-2-yl)-1-oxido-3-oxo-3H-1,4-benzo[d]isothiazol-1-yl)urea] | < 1 µM | < 1 µM | < 1 µM | < 1 µM
14 | COc1cc(-c2cccc(C(C)C)c2NC(=O)NS2(=O)=NC(=O)c3ccc(C(C)(C)O)cc32)ccn1 (centres unmarked) [Example 31] | 1 to 10 µM | 1 to 10 µM | < 1 µM | < 1 µM
